Counter-ions that a name gives are not always drawn.
What was measured:
[1] = target: T1, H^+ K^+ ATPase (Sus scrofa, UniProt P19156); assay: K^+ -stimulated ATPase activity in lyophilised gastric vesicles (H/K-ATPase); format: biochemical; conditions: lyophilised gastric vesicles from pig fundic mucosa, 37° C., pH 7.0, 30 minutes
T1 construct: Lyophilised gastric vesicles were prepared from pig fundic mucosa; from tissue; host or cells: pig fundic mucosa (lyophilised gastric vesicles)
Experimental: A. H^+ K^+ ATPase Activity The effects of a single high concentration (100 μM) of a compound of structure (I) on K^+ -stimulated ATPase activity in lyophilised gastric vesicles was determined. Preferred compounds of structure (I) were also tested over a range of concentrations to determine IC50 values. (i) Preparation of Lyonhilised Gastric Vesicles (H/K-ATPase) Lyophilised gastric vesicles were prepared from pig fundic mucosa after the method of Keeling et. al. (Biochem. Pharmacol., 34, 2967, 1985). (ii) K^+ -Stimulated ATPase Activity K^+ -stimulated ATPase activity was determined at 37° C. in the presence of the following: 10 mM Pipes/Tris buffer pH 7.0, 2 mM MgSO4, 1 mM KCl, 2 mM Na2 ATP and 3 μg protein/ml lyophilised gastric vesicles. After incubation for 30 minutes, the inorganic phosphate hydrolysed from ATP was determined by the method of Yoda and Hokin (Biochem. Biophys. Res. Commun. 40, 880, 1970). Compounds of structure (I) were dissolved in dimethylsulphoxide which up to the highest concentration used had no effect on K^+ -stimulated ATPase activity. The effect of the highest concentration of each compound of structure (I) on the recovery of a standard amount of inorganic phosphate was also determined.

[2] = system: pentagastrin stimulated gastric acid secretion; assay: Rat Lumen Perfused Stomach (Pentagastrin Stimulated Gastric Acid Secretion); format: in vivo; conditions: for RAT GS % inhibition @ 10 μmol/kg: i.v.; for ED50: iv, read-out: RAT GS ED50
From the text: B. Rat Lumen Perfused Stomach (Pentagastrin Stimulated Gastric Acid Secretion)
Using a modification of the procedure described by Ghosh & Schild (Br. J. Pharmacology, 13, 54, 1958), the compounds of the following examples were found on i.v. administration to cause an inhibition of pentagastrin stimulated gastric acid secretion as indicated in the following table. Results are given as % inhibition at 10 μmole/kg or ED50 (μM/kg): […]

T1 sequence (P19156 2-1034 limits assumed): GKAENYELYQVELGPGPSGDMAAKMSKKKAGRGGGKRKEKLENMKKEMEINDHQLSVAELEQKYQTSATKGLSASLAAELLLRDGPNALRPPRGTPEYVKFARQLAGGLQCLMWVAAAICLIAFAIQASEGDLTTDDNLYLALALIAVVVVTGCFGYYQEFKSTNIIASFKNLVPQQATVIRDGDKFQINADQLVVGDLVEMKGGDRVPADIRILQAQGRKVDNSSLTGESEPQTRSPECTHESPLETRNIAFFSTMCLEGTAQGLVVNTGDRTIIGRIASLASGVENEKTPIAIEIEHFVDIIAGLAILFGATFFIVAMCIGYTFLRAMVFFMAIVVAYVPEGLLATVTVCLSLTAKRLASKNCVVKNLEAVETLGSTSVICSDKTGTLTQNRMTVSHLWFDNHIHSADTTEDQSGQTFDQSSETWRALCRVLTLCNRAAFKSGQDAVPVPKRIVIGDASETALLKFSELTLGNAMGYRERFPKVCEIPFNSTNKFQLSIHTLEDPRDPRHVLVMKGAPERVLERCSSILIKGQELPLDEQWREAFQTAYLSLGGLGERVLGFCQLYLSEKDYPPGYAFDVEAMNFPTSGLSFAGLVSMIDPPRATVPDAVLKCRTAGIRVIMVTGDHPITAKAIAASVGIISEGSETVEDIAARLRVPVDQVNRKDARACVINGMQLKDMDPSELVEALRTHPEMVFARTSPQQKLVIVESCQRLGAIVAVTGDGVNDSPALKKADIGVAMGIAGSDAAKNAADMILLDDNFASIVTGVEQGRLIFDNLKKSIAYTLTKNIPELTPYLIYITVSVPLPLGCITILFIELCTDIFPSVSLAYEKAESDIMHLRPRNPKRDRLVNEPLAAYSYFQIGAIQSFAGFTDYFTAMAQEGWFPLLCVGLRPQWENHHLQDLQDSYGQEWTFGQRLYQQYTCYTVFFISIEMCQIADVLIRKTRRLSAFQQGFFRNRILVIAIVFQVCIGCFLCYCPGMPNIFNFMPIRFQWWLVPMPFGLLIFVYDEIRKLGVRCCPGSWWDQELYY
T1 sequence (P18434 whole entry partner): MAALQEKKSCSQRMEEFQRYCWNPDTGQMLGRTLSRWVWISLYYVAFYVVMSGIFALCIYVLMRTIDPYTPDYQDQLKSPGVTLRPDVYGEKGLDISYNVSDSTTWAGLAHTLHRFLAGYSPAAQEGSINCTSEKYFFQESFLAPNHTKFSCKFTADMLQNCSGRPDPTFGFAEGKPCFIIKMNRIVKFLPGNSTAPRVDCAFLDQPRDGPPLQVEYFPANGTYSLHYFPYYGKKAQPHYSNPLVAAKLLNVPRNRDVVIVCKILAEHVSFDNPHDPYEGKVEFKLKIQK

IC50 [1] [nM] | Compound | RAT GS % inhibition @ 10 μmol/kg [2] [%] | ED50 [2] [µmol/kg]
3000 | CCOC(=O)c1cnc2sccc2c1Nc1ccccc1C [Example 1, Ethyl 4-(2-methylohenylamino)thieno[2,3-b]pyridine-5-carboxylate] | 32 | 
9710 | CCOC(=O)c1cnc2sccc2c1NCc1ccccc1 [Example 2, Ethyl 4-benzylaminothieno[2,3-b]pyridine-5-carboxylate] | 13 | 
620 | CCOC(=O)c1cnc2ccsc2c1Nc1ccccc1C [Example 3, Ethyl 7-(2-methylphenylamino)thieno[3,2-b]pyridine-6-carboxylate] |  | 9.7
4300 | CCOC(=O)c1cnc2ccsc2c1NCc1ccccc1 [Example 4, Ethyl 7-benzylaminothieno[3,2-b]pyridine-6-carboxylate] | 19 | 
 | CCOC(=O)c1cnc2c(C)csc2c1Nc1ccccc1C [Example 5, Ethyl 3-methyl-7-(2-methylphenylamino)thieno[3,2-b]-pyridine-6-carboxylate] |  | 11.2
 | CCOC(=O)c1cnc2c(C)csc2c1NCc1ccccc1 [Example 6, Ethyl 3-methyl-7-benzylaminothieno[3,2-b]pyridine-6-carboxylate] | 31 | 
21000 | CCOC(=O)c1cnc2c(OC)csc2c1Nc1ccccc1C [Example 7, Ethyl 3-methoxy-7-(2-methylohenylamino)thieno[3,2-b] pyridine-6-carboxylate] |  | 
13000 | CCCC(=O)c1cnc2c(OC)csc2c1Nc1ccccc1C [Example 9, 6-Butyryl-7-(2-methylphenylamino)-3-methoxythieno[3,2-b]pyridine] |  | 
880 | CCCC(=O)c1cnc2ccsc2c1Nc1ccccc1C [Example 11, 6-Butyryl-7-(2-methylphenylamino)thieno[3,2-b]pyridine] | 55 | 
4300 | CCCC(=O)c1cnc2ccsc2c1Nc1ccc(F)cc1C [Example 12, 6-Butyryl-7-(4-fluoro-2-methylphenylamino)thieno[3,2-b]-pyridine] | 38 | 
1100 | CCCC(=O)c1cnc2ccsc2c1Nc1ccccc1CC [Example 13, 6-Butyryl-7-(2-ethylphenylamino)thieno[3,2-b]pyridine] |  | 3.32
1200 | CCCC(=O)c1cnc2ccsc2c1Nc1ccccc1CCC [Example 14, 6-Butyryl-7-(2-propylphenylamino)thieno[3,2-b]pyridine hydrochloride] |  | 
860 | CCCC(=O)c1cnc2ccsc2c1Nc1ccccc1C(C)C [Example 15, 6-Butyryl-7-(2-isopropylphenylamino)thieno[3,2-b]pyridine] | 62 | 
330 | CCCC(=O)c1cnc2ccsc2c1Nc1ccc(O)cc1C [Example 16, 6-Butyryl-(4-hydroxy-2-methylphenylamino)thieno[3,2-b]-pyridine] |  | 4.03
